Read-outs that look alike come from different tables or passages of the source.
Tests used:
[1] = Solubility in 0.1 M phosphate buffer at pH 7; type: physicochemical; details: 0.1 M phosphate buffer at pH 7, 10 mg/mL final peptide concentration, shaking 2 hours at room temperature, peptides as TFA-salts; measured sample pH 6.5-7.0
hGIPR = molecular target: T1, hGIPR (Homo sapiens, UniProt P48546); experiment: hGIPR CreLuc assay in 0.5% and 100% plasma (CHO CRE-luciferase reporter cells); type: cell-based; details: 0.5% human plasma, read-out: hGIPR 0.5% hP
T1 construct: expressed in transfected cells; host or cells: CHO CRE-luciferase reporter cells
T1 sequence (P48546 22-466): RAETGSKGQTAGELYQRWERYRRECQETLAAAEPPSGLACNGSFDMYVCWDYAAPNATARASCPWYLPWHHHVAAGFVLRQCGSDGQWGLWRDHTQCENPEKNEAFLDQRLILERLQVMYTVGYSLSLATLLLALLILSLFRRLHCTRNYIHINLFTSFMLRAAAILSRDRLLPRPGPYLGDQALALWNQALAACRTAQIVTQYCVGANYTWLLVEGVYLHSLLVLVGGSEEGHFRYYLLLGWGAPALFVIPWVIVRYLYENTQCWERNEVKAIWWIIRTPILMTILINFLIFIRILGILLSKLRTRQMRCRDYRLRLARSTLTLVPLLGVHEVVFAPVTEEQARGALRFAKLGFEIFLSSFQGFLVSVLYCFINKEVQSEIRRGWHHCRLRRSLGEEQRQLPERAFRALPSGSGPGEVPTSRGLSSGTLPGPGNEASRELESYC

hNPY2R = molecular target: T2, hNPY2R (Homo sapiens, UniProt P49146); experiment: hNPY2R CreLuc assay in 0.5% and 100% plasma (HEK-293 CRE-luciferase reporter cells); type: cell-based; details: HEK-293 reporter cells
T2 construct: expressed in transfected cells; host or cells: HEK-293 CRE-luciferase reporter cells
T2 sequence (P49146 1-381): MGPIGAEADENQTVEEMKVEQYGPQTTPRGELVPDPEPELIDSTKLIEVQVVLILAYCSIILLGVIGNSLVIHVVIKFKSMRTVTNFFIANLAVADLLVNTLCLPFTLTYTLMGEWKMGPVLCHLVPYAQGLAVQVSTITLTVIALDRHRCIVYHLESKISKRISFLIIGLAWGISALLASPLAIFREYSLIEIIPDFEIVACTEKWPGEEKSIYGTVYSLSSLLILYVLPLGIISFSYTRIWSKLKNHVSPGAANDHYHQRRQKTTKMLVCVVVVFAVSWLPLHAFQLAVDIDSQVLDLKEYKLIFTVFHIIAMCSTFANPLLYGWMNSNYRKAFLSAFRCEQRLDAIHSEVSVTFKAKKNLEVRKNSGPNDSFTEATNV
From the text: CHO and HEK-293 recombinant cell lines express a luciferase reporter gene under control of the CAMP responsive element (CRE). As a second recombinant protein the GLP-1 and NPY2 receptors were expressed in the reporter gene HEK cells, and the GIP receptor was expressed in the reporter gene CHO cells, respectively. Stimulation of these recombinant cells with an agonist leads to an increase of intracellular CAMP levels. In the presence of CAMP, the transcription factor CRE binding protein (CREB) binds to the CRE and to the CREB binding protein (CBP), which leads to transcription of the luciferase reporter gene. Peptides upon serial-dilution in 100% DMSO were transferred into 384-well assay plates with 5 μl pre-dispensed assay buffer (1×HBSS, 20 mM HEPES, pH7.4 supplemented with 0.5% human plasma) using acoustic dispensing on a Labcyte ECHO. Cryo-preserved transgenic reporter gene cells were thawed in assay buffer. 20 μl (10.000 cells/well) were added to the plate with the peptides and incubated for 4 hours at 37° C. in a humidified incubator. Following incubation, assay plates are equilibrated to room temperature, followed by addition of 25 μl of Bright-Glo™ Luciferase reagent, incubation at room temperature for 10 minutes and analysis of luminescence (Envision Reader). […] EC50 values were calculated by non-linear regression using sigmoid concentration-response with variable slope.
The same assays were run in the presence of 100% plasma with no additional buffer constituents.

solubility at 2 h [1] [µg/mL] | EC50 (hGIPR) [nM] | EC50 (hNPY2R; 0.5% human plasma, read-out: hNPY2R 0.5% hP) [nM] | EC50 (hNPY2R; 100% human plasma, read-out: hNPY2R 100% hP) [nM] | Compound
9100 | 0.5 | 17.1 | – | CC[C@H](C)[C@H](NC(=O)[C@H](CC(C)C)NC(=O)[C@H](Cc1c[nH]cn1)NC(=O)[C@H](CCCNC(=N)N)NC(=O)[C@@H](NC(=O)[C@H](Cc1ccccc1)NC(=O)[C@H](CCC(=O)O)NC(=O)C(C)(C)NC(=O)[C@H](CCC(N)=O)NC(=O)[C@H](C)NC(=O)[C@H](CCC(N)=O)NC(=O)[C@H](CCCCN)NC(=O)[C@H](CCC(=O)O)NC(=O)[C@H](CC(C)C)NC(=O)C(C)(C)NC(=O)[C@@H](NC(=O)[C@H](CO)NC(=O)[C@H](Cc1ccc(O)cc1)NC(=O)[C@H](CC(=O)O)NC(=O)[C@H](CO)NC(=O)[C@@H](NC(=O)[C@H](Cc1ccccc1)NC(=O)[C@@H](NC(=O)CNC(=O)[C@H](CCC(=O)O)NC(=O)C(C)(C)NC(=O)[C@@H](N)Cc1ccc(O)cc1)[C@@H](C)O)[C@@H](C)O)[C@@H](C)CC)C(C)C)C(=O)N[C@@H](CC(N)=O)C(=O)N[C@@H](CCCCNC(=O)[C@@H](N)CCCCNC(=O)[C@H](CCC(=O)O)NC(=O)CC[C@H](NC(=O)CC[C@H](NC(=O)CC[C@H](NC(=O)CC[C@H](NC(=O)CC[C@H](NC(=O)CC[C@H](NC(=O)CCCCCCCCCCCCCCCCC(=O)O)C(=O)O)C(=O)O)C(=O)O)C(=O)O)C(=O)O)C(=O)O)C(=O)N[C@@H](CC(C)C)C(=O)N[C@H](C(=O)N[C@@H](CCCNC(=N)N)C(=O)N[C@@H](CCC(N)=O)C(=O)N[C@@H](CCCNC(=N)N)C(=O)N[C@@H](Cc1ccc(O)cc1)C(N)=O)[C@@H](C)O [Compound 32, Y-Aib-E-G-T-F-T-S-D-Y-S-I-Aib-L-E-K-Q-A-Q-Aib-E-F-V-R-H-L-I-N-K(1,3)-L-T-R-Q-R-Y-NH2.C18DA-gGlu-gGlu-gGlu-gGlu-gGlu-gGlu-Glu-eLys(1,2)]
4300 | 0.6 | – | 141 | CC[C@H](C)[C@H](NC(=O)[C@H](CC(C)C)NC(=O)[C@H](Cc1c[nH]cn1)NC(=O)[C@H](CCCNC(=N)N)NC(=O)[C@@H](NC(=O)[C@H](Cc1ccccc1)NC(=O)[C@H](C)NC(=O)C(C)(C)NC(=O)[C@H](CCC(N)=O)NC(=O)[C@H](C)NC(=O)[C@H](CCC(N)=O)NC(=O)[C@H](CCCCN)NC(=O)[C@H](CCC(=O)O)NC(=O)[C@H](CC(C)C)NC(=O)C(C)(C)NC(=O)[C@@H](NC(=O)[C@H](CO)NC(=O)[C@H](Cc1ccc(O)cc1)NC(=O)[C@H](CC(=O)O)NC(=O)[C@H](CO)NC(=O)[C@@H](NC(=O)[C@H](Cc1ccccc1)NC(=O)[C@@H](NC(=O)CNC(=O)[C@H](CCC(=O)O)NC(=O)C(C)(C)NC(=O)[C@@H](N)Cc1ccc(O)cc1)[C@@H](C)O)[C@@H](C)O)[C@@H](C)CC)C(C)C)C(=O)N[C@@H](CC(N)=O)C(=O)N[C@@H](CCCCNC(=O)CC[C@H](NC(=O)CC[C@H](NC(=O)CC[C@H](NC(=O)CC[C@H](NC(=O)CC[C@H](NC(=O)CC[C@H](NC(=O)CC[C@H](NC(=O)CCCCCCCCCCCCCCCCC(=O)O)C(=O)O)C(=O)O)C(=O)O)C(=O)O)C(=O)O)C(=O)O)C(=O)O)C(=O)NC(C)(C)C(=O)N[C@H](C(=O)N[C@@H](CCCNC(=N)N)C(=O)N[C@@H](CCC(N)=O)C(=O)N[C@@H](CCCNC(=N)N)C(=O)N[C@@H](Cc1ccc(O)cc1)C(N)=O)[C@@H](C)O [Compound 38, Y-Aib-E-G-T-F-T-S-D-Y-S-I-Aib-L-E-K-Q-A-Q-Aib-A-F-V-R-H-L-I-N-K(1,3)-Aib-T-R-Q-R-Y-NH2.C18DA-gGlu-gGlu-gGlu-gGlu-gGlu-gGlu-gGlu(1,2)]
